# Source: patent US7094533B1, “Therapeutic and diagnostic applications of prostatic acid phosphatase in prostate cancer” (Board of Regents of the University of Nebraska, priority 1999, dated 2006)
# Like-named read-outs stand apart in the source and are kept apart here.
# T1: PAcP (Homo sapiens, UniProt P15309)
# T1 sequence (P15309 33-386): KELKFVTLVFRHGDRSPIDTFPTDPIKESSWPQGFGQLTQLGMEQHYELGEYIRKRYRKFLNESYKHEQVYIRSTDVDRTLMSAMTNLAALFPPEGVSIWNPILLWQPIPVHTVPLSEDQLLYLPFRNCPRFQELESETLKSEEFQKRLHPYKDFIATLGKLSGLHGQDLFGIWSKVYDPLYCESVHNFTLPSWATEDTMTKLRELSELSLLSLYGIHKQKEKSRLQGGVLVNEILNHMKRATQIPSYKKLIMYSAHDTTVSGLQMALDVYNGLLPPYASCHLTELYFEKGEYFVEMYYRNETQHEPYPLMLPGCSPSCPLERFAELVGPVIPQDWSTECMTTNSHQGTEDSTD
# B1: cellular PAcP: cellular form of human prostatic acid phosphatase, expressed from full-length human PAcP cDNA driven by a pCMV-neo expression vector (protein)
# chain: T1 sequence (P15309 33-386)
# Columns and labels:
# [1] = target: T1, PAcP; conditions: 20 nM okadaic acid; cited from earlier work
# [2] = test system: PAcP mRNA in LNCaP cells
# Description: Nuclear run-on experiment. […] Transcription was continued in the presence of “P-labeled UTP (Amersham. Life Science Inc.). The radioactive RNA was hybridized with a slot blot membrane containing the full length of PAcP cDNA.
# [3] = test system: cellular PAcP; conditions: clone 33 LNCaP cells exposed to DHT (FIG. 3B)
# Description: (§1) Cells were harvested for preparation of total RNA and total cell lysate proteins as described below.
# Western Blot Analysis. Subconfluent cells were trypsinized, pelleted, and rinsed with Hepes-buffered saline, pH 7.0, and then lysed in a hypotonic cell lysis buffer containing various protease inhibitors as described above. […] The relative levels of AR and PAcP protein were semiquantified by densitometric analyses of autoradiograms with different exposure time periods utilizing Molecular Dynamics equipment and software program.
# [4] = test system: PC-411 and PC-416 cells; conditions: p<0.05 (FIG. 6D)
# Procedure: (§2) Androgen Effect on Cell Growth, Protein Tyrosine Phosphorylation, PSA, and PAcP Expression. Cells were plated at a density of approximately 1×10^4 cells/cm^2 in RPMI 1640 medium containing 7% FBS and maintained in a 37° C. incubator (5% CO^2) for 3 days (Lin et al., 1992, Cancer Res. 52, 4600–4607; Lin et al., 1993, Arch. Biochem. Biophys. 300:384–390; both are incorporated by reference herein). To investigate androgen effect on cell growth and protein tyrosine phosphorylation, cells that had been maintained in the steroid-reduced medium containing 5% heat-inactivated dialyzed FBS for an additional 48 h were grown in fresh steroid-reduced medium in the presence or absence of different concentrations of DHT. After a time period specified in each set of experiments, cells were harvested and then counted using a hemocytometer or Coulter Counter (Lin et al., 1992, Cancer Res. 52, 4600–4607; Lin et al., 1994, Differentiation 57:143–149; incorporated by reference herein). The cell number in the control well was defined as ratio 1.0.
# [5] = test system: LNCaP-23 and LNCaP-34 cells; conditions: LNCaP-23 and LNCaP-34 versus clone 81 parent and LNCaP-CMV cells, different concentrations of DHT (FIG. 5D)
# Procedure: as §2
# [6] = test system: DU145 cells; conditions: counted at day 3 (FIG. 1A)
# Description: (§3) Cell Cultures. Human prostate carcinoma cell lines, LNCaP-FGC (LNCaP) (Horoszewicz et al., 1983, Cancer Res. 43:1809–1818), DU145 (Stone et al., 1978, Int. J. Cancer 21:274–281), and PC-3 (Kaighn et al., 1979, Invest. Urol. 17:16–23), were originally obtained from the American Type Culture Collection (Rockville, Md.) and routinely maintained in RPMI 1640 medium supplemented with 7% FBS, 1% glutamine, and 0.5% gentamicin, as described previously (Lin et al., 1992, Cancer Res. 52, 4600–4607; Lin et al., 1986, Mol. Cell. Biol. 6:4753–4757). Cultured cells were fed twice per week and trypsinized once per week; one passage equals one trypsinization. […] For experiments, LNCaP cells that had passage numbers less than 33 were designated as clone 33, passage numbers over 80 as clone 81, and passage numbers between 34 and 80 as clone 51. To investigate basal growth rates of different subcloned cells, cells were seeded and maintained in steroid-reduced medium containing 5% heat-inactivated dialyzed FBS. To quantify cell growth, attached cells were trypsinized and neutralized with medium-FBS. The total cell number including the suspended and attached cells were counted using a hemocytometer via trypan blue exclusion or a Coulter Counter Z1 model (Lin et al., 1992, Cancer Res. 52, 4600–4607; Lin et al., 1994, Differentiation 57:143–149).
# as §2
# (§4) In FIG. 1A, the total cell number was counted at day 3 for PC-3 and DU145 cells and at day 4 fro LNCaP cells.
# [7] = test system: clone 81 LNCaP cells; conditions: 10 nM DHT, 7-day treatment, clone 81 LNCaP (FIG. 2A)
# Description: as §3, §2, §4
# [8] = test system: clone 33 LNCaP cells; conditions: 10 nM DHT
# Description: as §3, §2, §4
# [9] = test system: PC-3 cells; conditions: counted at day 3 (FIG. 1A)
# Description: as §3, §2, §4
# [10] = test system: PSA mRNA; conditions: each clone of LNCaP cells (33, 51, 81), 10 nM DHT, 3 days
# Description: as §1
# [11] = test system: human AR cDNA-transfected PC-3 cells; conditions: 10 nM R1881, 24 h, human AR cDNA-transfected PC-3 cells (FIG. 6A)
# Procedure: Chloramphenicol Acetyltransferase Assay. Cells that had been grown in medium containing 5% charcoal-stripped FBS were transfected with the pMSG-CAT reporter plasmid, pSG5 vector DNA, or pSG5-AR plasmid by the liposome-mediated transfection method (Lin et al., 1992, Cancer Res. 52, 4600–4607; Felgner et al., 1987, Proc. Natl. Acad. Sci. U.S.A. 84:7413–7417). After a 24-h incubation period, cells were maintained in medium supplemented with 5% steroid-reduced FBS in the presence or absence of 10 nM R1881, a synthetic androgen, in ethanol (0.01%, v/v). After an additional 24-h incubation, CAT assays were performed as described (Felgner et al., 1987, Proc. Natl. Acad. Sci. U.S.A. 84:7413–7417; Moszowicz et al., 1993, Mol. Endocrinol. 7:1861–869).
# [12] = test system: DU 145 cells; experiment: Chloramphenicol acetyltransferase assay (pMSG-CAT reporter); type: cell-based, human; conditions: 10 nM R1881, DU 145 cells
# Description: (§5) Chloramphenicol Acetyltransferase Assay.
# [13] = test system: AR in PC-3 cells; experiment: as above; type: cell-based, human; conditions: 10 nM R1881, 24 h, PC-3 cell lysate proteins (FIG. 6A)
# Description: as §5
# [14] = test system: LNCaP xenograft tumors; experiment: Subcutaneous xenograft tumors in male athymic mice, LNCaP cells; type: in vivo; conditions: 28 days after inoculation (C-81 LNCaP 241)
# Procedure: (§6) Xenograft animal experiments. The protocol for the subcutaneous xenograft animal model in athymic mice was essentially as that described in Lin et al., 1995 (The Prostate 26:194–204). For comparing the tumorigenicity of different LNCaP cells, 1×10^6 cells were suspended in 0.1 ml medium, mixed with 0.1 ml matrigel (Collaborative Biomedical, MA), and injected subcutaneously in the hind flank of male mice. For examining the hormone effect on tumor development, 5×10^5 cells in matrigel were injected into female mice. For the PC-3 cell system, 1×10^6 cells in 0.2 ml medium suspension without matrigel were injected into male mice. The animal maintenance and the tumor measurement were followed the NIH guidelines and the specific guideline by the University of Nebraska Medical Center as previously described (Lin et al., 1995, The Prostate 26:194–204).
# [15] = test system: LNCaP xenograft tumors; experiment: Subcutaneous xenograft tumors in female athymic mice, LNCaP cells; type: in vivo; conditions: for mice that did not develop any tumor: female, after 100 days of inoculation; for averaged tumor size: 70 days
# Procedure: as §6
# [16] = test system: PC-3 xenograft tumors; experiment: Subcutaneous xenograft tumors in male athymic mice, PC-3 cells; type: in vivo; conditions: for xenograft tumor size as % of PC-3 xenograft tumors: 42 days; for xenograft tumor size: 42 days after cell injection (PC-3 612 mm^3)
# Procedure: as §6
# [17] = test system: PC-416 cells; experiment: Anchorage-independent growth, soft agar analysis; type: cell-based, human; conditions: PC-416 cells (FIG. 9C)
# Procedure: (§7) Anchorage-independent growth. Anchorage-independent growth of prostate cancer cells was performed by soft agar analysis (Weiner et al., 1989, Oncogene 4:1175–1183; Horoszewicz et al., 1983, Cancer Res. 43:1809–1818). Briefly, cells were seeded in 0.25% agarose on the top of a base layer containing 0.6% agarose. One day after seeding, cell clumps containing more than one cell were excluded and the colony number was counted after 3 weeks of incubation.
# [18] = test system: PAcP cDNA transfected C-81 LNCaP cells; experiment: Anchorage-independent growth, soft agar analysis; type: cell-based, human; conditions: LNCaP-23, -28, -40 cells, colonies after 3 weeks (FIG. 9B)
# Procedure: as §7
molecule,measurement,setting,value
C=C1[C@@H](O)[C@@H]2O[C@]3(CC[C@H](/C=C/[C@@H](C)[C@@H]4CC(C)=C[C@@]5(O[C@H](C[C@@](C)(O)C(=O)O)CC[C@H]5O)O4)O3)CC[C@H]2O[C@@H]1[C@@H](O)C[C@H](C)[C@H]1O[C@@]2(CCCCO2)CC[C@H]1C [okadaic acid],effect on PAcP activity,[1],not affected
"C[C@]12CCC(=O)C[C@@H]1CC[C@@H]1[C@@H]2CC[C@]2(C)[C@@H](O)CC[C@@H]12 [DHT, 5α-dihydrotestosterone]",transcription of PAcP mRNA,[2]; high density LNCaP cells (FIG. 11B),suppressed
same,transcription of PAcP mRNA,[2]; low density LNCaP cells (FIG. 11B),stimulated
same,cellular PAcP level,[3],diminished level
same,effect on cell growth,[4],stimulated significantly
same,degree of androgen stimulation of cell growth,[5],enhanced
same,effect on cell growth,[6],did not have a significant effect
same,stimulation of cell growth,[7],~20%
same,stimulatory effect on cell growth,"[8]; 7-day treatment, clone 33 LNCaP (FIG. 2A)",≤ 2.5 fold
same,stimulation of cell growth,"[8]; clone 33 LNCaP, steroid-reduced medium, counted at day 4 (FIG. 1A)",1.5–2 fold
same,effect on cell growth,[9],did not have a significant effect
same,"induction of PSA mRNA, normalized to GAPDH",[10],2–3 fold
C[C@]1(O)CC[C@H]2[C@@H]3CCC4=CC(=O)CCC4=C3C=C[C@@]21C [R1881],stimulation of the CAT activity,[11],~9 fold
same,effect on the CAT activity,[12],did not have an effect
same,stimulation of the CAT activity,[13],~2 fold
B1,averaged tumor size,[14]; LN-23 cells,143 mm^3
same,averaged tumor size,[14]; LN-34 cells,115 mm^3
same,tumor induction,"[15]; LN-23 and LN-40 cells, female mice, 35 days after inoculation (clone-81 782 mm^3)",no detectable tumor
same,mice that did not develop any tumor,[15]; LN-23 mice,20%
same,averaged tumor size,"[15]; LN-23 tumors, female mice",347 mm^3
same,mice that did not develop any tumor,[15]; LN-40 mice,50%
same,averaged tumor size,"[15]; LN-40 tumors, female mice",214 mm^3
same,xenograft tumor size as % of PC-3 xenograft tumors,"[16]; PC-412, male mice",about 38%
same,xenograft tumor size,"[16]; PC-412, male mice",233 mm^3
same,xenograft tumor size as % of PC-3 xenograft tumors,"[16]; PC-416, male mice",~23%
same,xenograft tumor size,"[16]; PC-416, male mice",138 mm^3
same,anchorage-independent growth,[17],diminished
same,decrease of anchorage-independent growth,[18],more than 100 folds
